Results: patent US10851069B2, “Compositions of crystallized hydrophobic compounds and methods of making and using same” (Massachusetts Institute of Technology, priority 2016, dated 2020)

What was measured:
rat islets = assay: Live/dead islet staining of islets co-encapsulated with drug; type: cell-based; details: amorphous and crystalline forms
Procedure: Male Sprague-Dawley rats from Jackson Laboratories (Bar Harbor, Me.) weighing approximately 300 grams were used for harvesting islets. All rats were anesthetized by a 1:20 xylazine (10 mg/kg) to ketamine (150 mg/kg) injection given intraperitoneally, and the total volume of each injection was 0.4 ml-0.5 ml depending on the weight of rat. Isolation surgeries were performed as described by Lacy and Kostianovsky^2. Briefly, the bile duct was cannulated and the pancreas was distended by an in vivo injection of 0.15% Liberase (Research Grade, Roche) in RPMI 1640 media solution. Rats were sacrificed by cutting the descending aorta and the distended pancreatic organs were removed and held in 50 ml conical tubes on ice until the completion of all surgeries. All tubes were placed in a 37° C. water bath for a 30 min digestion, which was stopped by adding 10-15 ml of cold M199 media with 10% heat-inactivated fetal bovine serum (HIFBS) and lightly shaking. Digested pancreases were washed twice in the same aforementioned M199 media, filtered through a 450 μm sieve, and then suspended in a Histopaque 1077 (Sigma)/M199 media gradient and centrifuged at 1,700 RCF at 4° C. […] Purified islets were hand-counted by aliquot under a light microscope and then washed three times in sterile ix phosphate-buffered saline. […]

[1] = system: non-human primates (cynomolgus macaques); assay: Crystalline GW2580 alginate capsules (0.5 and 1.5 mm) implanted IP and SC in non-human primates, foreign body response; type: in vivo; details: for macrophage responses on retrieved capsules (FACS): all cases of remaining drug
Procedure: Lead candidates identified in these studies, like GW2580, were subsequently tested in a non-human primate (NHP) model in which capsules (0.5 and 1.5 mm) were implanted in both the intraperitoneal (IP) and subcutaneous (SC) spaces (FIGS. 12 and 13C). […] IP space (lavage) drug concentrations were traced by LCMS fort each capsule type following retrieval time points, and found to drop from only 2-3 ng/ml at 4 weeks post-implantation to below detectable limit (0.5 ng/ml) beyond. […] And while 0.5 mm drug-loaded capsules became clumped at 3 months, they were not extensively embedded into surrounding omental tissue until 6 months (FIGS. 12, 23B and 23C).
For non-human primate (NHP) procedures, buprenorphine (0.01-0.03 mg/kg) was administered as a pre-operative analgesic. NHPs were then sedated using an intramuscular (IM) injection of ketamine (10 mg/kg) with an addition of midazolam as dictated by DCM vet staff if needed for additional sedation. Animals were maintained on a circulating warm water blanket and covered with a towel during the procedure to maintain body temperature. Either 0.5 or 1.5 mm diameter (drug-loaded) SLG20 spheres were implanted by minimally invasive laparoscopic surgery, and injected into the dorsal (back) regions of 4 non-human primates (cynomolgus macaques) using 18 and 12 gauge custom-manufactured (Harvard Apparatus) sterile stainless steel needles, with slip tip syringes in order to prevent shearing of our biomaterial upon injection. Needles were inserted tangentially to the backs of the NHPs, and were slid (tunneled) approximately 1-2 cm away from the initial injection point, in order to try to separate the injection from that of the site of eventual material response. Spheres (0.5 and 1.5 mm diameter) were injected into 4 total spots on the flank of 4 of our non-human primates: two spots on the left flank and two on the right, for 0.5 mm and 1.5 mm diameter sphere implants, respectively.
For non-human primate intraperitoneal and subcutaneous retrievals, similar to when material was implanted, NHPs were once again given buprenorphine (0.01-0.03 mg/kg) as a pre-operative analgesic, and sedated using an IM injection of ketamine (10 mg/kg), with midazolam as dictated by DCM vet staff if needed for additional sedation. Animals were once again maintained on a circulating warm water blanket and covered with a towel during the procedure to maintain body temperature. 8 mm diameter biopsy punches were then used to sample the entire skin and subcutaneous space at 2 and later at 4 weeks post-implantation. Following biopsy punches, the retrieval site was closed with 3-0 nylon in a simple-interrupted pattern and VetBond (tissue glue). For IP retrievals, minimally invasive laparoscopic surgery was also used (similar to implant procedures). […]

COc1ccc(COc2ccc(Cc3cnc(N)nc3N)cc2OC)cc1 [GW2580, 5-[[3-Methoxy-4-[(4-methoxyphenyl)methoxy]phenyl]methyl]-2,4-pyrimidinediamine]
toxicity to co-encapsulated islets (dead/live imaging) (rat islets): non-toxic | sphere embedding and collagen deposition (H&E and Masson's Trichrome) ([1]; 0.5 and 1.5 mm drug-loaded capsules, excised implant-site tissue): lack of sphere embedding and collagen deposition | fibrosis development (phase contrast) ([1]; crystalline, 0.5 and 1.5 mm capsules, 2 and 4 weeks, IP and SC): prevented fibrosis development | macrophage responses on retrieved capsules (FACS) ([1]; crystalline, 0.5 and 1.5 mm capsules): significant inhibition of macrophage responses | macrophage responses on retrieved capsules (FACS) ([1]; crystalline, 0.5 and 1.5 mm capsules, listed as GW): reduced multiple orders of magnitude
